Data: patent US10407409B2, “6-(5-hydroxy-1H-pyrazol-1-yl)nicotinamide inhibitors of PHD” (Takeda Pharmaceutical Company Limited, priority 2013, dated 2019)

Experiments:
[1] = target: PHD2 enzyme (residues 181-417) (Homo sapiens (Human), UniProt Q9GZT9); test: Inhibition of PHD enzyme (LC/MS peptide hydroxylation assay); format: biochemical; settings: PHD2 (residues 181-417) 5 nM, 60 min pre-incubation; -log(IC50), IC50 molar
In short: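 Hydroxylated peptide quantified by LC/MS after 60 min turnover of 1 uM biotinylated peptide with 2 uM 2-oxoglutarate and 1 mM ascorbate, stopped by excess tight-binding inhibitor. Beforehand, 5 nM enzyme and compound were preincubated 60 min at RT, pH 7.3 HEPES/KCl/TCEP/FeCl2/BSA buffer. Values as pIC50 (−log molar IC50).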

[2] = test system: HIF1a protein in H9c2 rat cardiomyocytes; test: Cell-based HIF-alpha stabilization assay (inhibition of PHD in cells); settings: 24 hrs compound incubation, HIF1a protein by ELISA; for EC50: Rattus norvegicus, H9c2, 24 h, read-out: Inhibition of PHD in cells (pEC50) (converted)
In short: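 HIF1a stabilization was measured by ELISA on lysates of H9c2 rat cardiomyocytes after 24 h exposure to 11 serial compound concentrations, expressed relative to the desferrioxamine maximum. Curve fits gave EC50. EC50pos denotes the concentration producing half the desferrioxamine maximal response.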

Chain of PHD2 enzyme (residues 181-417) (Q9GZT9 181-417): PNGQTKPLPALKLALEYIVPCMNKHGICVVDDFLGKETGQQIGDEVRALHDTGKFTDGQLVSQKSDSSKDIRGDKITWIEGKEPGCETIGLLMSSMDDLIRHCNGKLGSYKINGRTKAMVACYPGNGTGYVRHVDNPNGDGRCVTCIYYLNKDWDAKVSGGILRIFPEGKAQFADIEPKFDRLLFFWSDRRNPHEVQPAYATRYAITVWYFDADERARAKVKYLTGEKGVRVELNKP

Row | PHD Inhibition (pIC50) [1] | Compound | EC50 [2] [nM] | Inhibition of PHD in cells (pEC50) [2]
1 | 8.52 | CCN1CCN(C(=O)c2ccc(-n3ncc(-c4cc(F)c(C#N)cc4C)c3O)nc2)C[C@@H]1C [Example 397, (S)-4-(1-(5-(4-ethyl-3-methylpiperazine-1-carbonyl)pyridin-2-yl)-5-hydroxy-1H-pyrazol-4-yl)-2-fluoro-5-methylbenzonitrile] | 1620 | 
2 | 8.65 | Cc1cc(C#N)c(F)cc1-c1cnn(-c2ccc(C(=O)N3CCOCC3)cn2)c1O [Example 398, 2-fluoro-4-(5-hydroxy-1-(5-(morpholine-4-carbonyl)pyridin-2-yl)-1H-pyrazol-4-yl)-5-methylbenzonitrile] | 1950 | 
3 | 8.63 | Cc1cc(C#N)c(F)cc1-c1cnn(-c2ccc(C(=O)N3CCN(C)C4(CC4)C3)cn2)c1O [Example 399, 2-fluoro-4-(5-hydroxy-1-(5-(4-methyl-4,7-diazaspiro[2.5]octane-7-carbonyl)pyridin-2-yl)-1H-pyrazol-4-yl)-5-methylbenzonitrile] | 1700 | 
4 | 8.50 | Cc1cc(C#N)c(F)cc1-c1cnn(-c2ccc(C(=O)N3CCN(C)[C@@H](C)C3)cn2)c1O [Example 400, (S)-4-(1-(5-(3,4-dimethylpiperazine-1-carbonyl)pyridin-2-yl)-5-hydroxy-1H-pyrazol-4-yl)-2-fluoro-5-methylbenzonitrile] | 1660 | 
5 | 8.44 | Cc1cc(C#N)c(F)cc1-c1cnn(-c2ccc(C(=O)N3CCN(C)[C@H](C)C3)cn2)c1O [Example 401, (R)-4-(1-(5-(3,4-dimethylpiperazine-1-carbonyl)pyridin-2-yl)-5-hydroxy-1H-pyrazol-4-yl)-2-fluoro-5-methylbenzonitrile] | 1580 | 
6 | 8.48 | COCCCNC(=O)c1ccc(-n2ncc(-c3cc(F)c(C#N)cc3C)c2O)nc1 [Example 405, 6-(4-(4-cyano-5-fluoro-2-methylphenyl)-5-hydroxy-1H-pyrazol-1-yl)-N-(3-methoxypropyl)nicotinamide] | 324 | 
7 | 8.39 | Cc1cc(C#N)ccc1-c1cnn(-c2ccc(C(=O)N3CCN(C4CC4)CC3)cn2)c1O [Example 414, 4-(1-(5-(4-cyclopropylpiperazine-1-carbonyl)pyridin-2-yl)-5-hydroxy-1H-pyrazol-4-yl)-3-methylbenzonitrile] | 832 | 
8 | 8.41 | CCCN1CCN(C(=O)c2ccc(-n3ncc(-c4ccc(C#N)cc4C)c3O)nc2)CC1 [Example 415, 4-(5-hydroxy-1-(5-(4-propylpiperazine-1-carbonyl)pyridin-2-yl)-1H-pyrazol-4-yl)-3-methylbenzonitrile] |  | 6.20
9 | 8.17 | Cc1cc(C#N)ccc1-c1cnn(-c2ccc(C(=O)N3CCN(CC4CC4)CC3)cn2)c1O [Example 418, 4-(1-(5-(4-(cyclopropylmethyl)piperazine-1-carbonyl)pyridin-2-yl)-5-hydroxy-1H-pyrazol-4-yl)-3-methylbenzonitrile] | 1170 | 
10 | 7.99 | Cc1cc(C#N)ccc1-c1cnn(-c2ccc(C(=O)N3CCN(CCN(C)C)CC3)cn2)c1O [Example 423, 4-(1-(5-(4-(2-(dimethylamino)ethyl)piperazine-1-carbonyl)pyridin-2-yl)-5-hydroxy-1H-pyrazol-4-yl)-3-methylbenzonitrile] | 708 | 

Further lines, the compound ahead of its results:

Row | Compound | PHD Inhibition (pIC50) [1] | EC50 [2] [nM] | Inhibition of PHD in cells (pEC50) [2]
11 | COCCCNC(=O)c1ccc(-n2ncc(-c3ccc(C#N)c(C)c3)c2O)nc1 [Example 402, 6-(4-(4-cyano-3-methylphenyl)-5-hydroxy-1H-pyrazol-1-yl)-N-(3-methoxypropyl)nicotinamide] | 7.99 | 4370 | 
12 | COCCCNC(=O)c1ccc(-n2ncc(-c3cc(C)c(C#N)cc3C)c2O)nc1 [Example 403, 6-(4-(4-cyano-2,5-dimethylphenyl)-5-hydroxy-1H-pyrazol-1-yl)-N-(3-methoxypropyl)nicotinamide] | 7.78 | 1860 | 
13 | COCCCNC(=O)c1ccc(-n2ncc(-c3c(C)cc(C#N)cc3F)c2O)nc1 [Example 404, 6-(4-(4-cyano-2-fluoro-6-methylphenyl)-5-hydroxy-1H-pyrazol-1-yl)-N-(3-methoxypropyl)nicotinamide] | 8.01 | 631 | 
14 | COCCCNC(=O)c1ccc(-n2ncc(-c3ccc(C#N)c(F)c3C)c2O)nc1 [Example 406, 6-(4-(4-cyano-3-fluoro-2-methylphenyl)-5-hydroxy-1H-pyrazol-1-yl)-N-(3-methoxypropyl)nicotinamide] | 8.49 | 191 | 
15 | COCCCNC(=O)c1ccc(-n2ncc(-c3ccc(C#N)c(C)c3C)c2O)nc1 [Example 409, 6-(4-(4-cyano-2,3-dimethylphenyl)-5-hydroxy-1H-pyrazol-1-yl)-N-(3-methoxypropyl)nicotinamide] | 8.24 | 257 | 
16 | COCCCNC(=O)c1ccc(-n2ncc(-c3ccc(C#N)cc3COC)c2O)nc1 [Example 410, 6-(4-(4-cyano-2-(methoxymethyl)phenyl)-5-hydroxy-1H-pyrazol-1-yl)-N-(3-methoxypropyl)nicotinamide] | 8.07 | 513 | 
17 | COCCCNC(=O)c1ccc(-n2ncc(-c3ccc(C#N)c(OC)c3C)c2O)nc1 [Example 411, 6-(4-(4-cyano-3-methoxy-2-methylphenyl)-5-hydroxy-1H-pyrazol-1-yl)-N-(3-methoxypropyl)nicotinamide] | 8.20 | 676 | 
18 | Cc1cc(C#N)ccc1-c1cnn(-c2ccc(C(=O)N3CC[C@H](N(C)C)C3)cn2)c1O [Example 412, (S)-4-(1-(5-(3-(dimethylamino)pyrrolidine-1-carbonyl)pyridin-2-yl)-5-hydroxy-1H-pyrazol-4-yl)-3-methylbenzonitrile] | 8.11 | 282 | 
19 | Cc1cc(C#N)ccc1-c1cnn(-c2ccc(C(=O)N3CC[C@@H](N(C)C)C3)cn2)c1O [Example 413, (R)-4-(1-(5-(3-(dimethylamino)pyrrolidine-1-carbonyl)pyridin-2-yl)-5-hydroxy-1H-pyrazol-4-yl)-3-methylbenzonitrile] | 8.10 | 2090 | 
20 | Cc1cc(C#N)ccc1-c1cnn(-c2ccc(C(=O)N3CCC(N(C)C)CC3)cn2)c1O [Example 416, 4-(1-(5-(4-(dimethylamino)piperidine-1-carbonyl)pyridin-2-yl)-5-hydroxy-1H-pyrazol-4-yl)-3-methylbenzonitrile] | 7.78 | 1410 | 
21 | Cc1cc(C#N)ccc1-c1cnn(-c2ccc(C(=O)N3CC[C@@H]4CN(C)C[C@@H]4C3)cn2)c1O [Example 417, 4-(5-hydroxy-1-(5-((3aR,7aS)-2-methyloctahydro-1H-pyrrolo[3,4-c]pyridine-5-carbonyl)pyridin-2-yl)-1H-pyrazol-4-yl)-3-methylbenzonitrile] | 7.87 | 575 | 
22 | Cc1cc(C#N)ccc1-c1cnn(-c2ccc(C(=O)N3CCC(CN(C)C)CC3)cn2)c1O [Example 419, 4-(1-(5-(4-((dimethylamino)methyl)piperidine-1-carbonyl)pyridin-2-yl)-5-hydroxy-1H-pyrazol-4-yl)-3-methylbenzonitrile] | 7.98 | 631 | 
23 | Cc1cc(C#N)ccc1-c1cnn(-c2ccc(C(=O)N(C3CC3)C3CCN(C)CC3)cn2)c1O [Example 420, 6-(4-(4-cyano-2-methylphenyl)-5-hydroxy-1H-pyrazol-1-yl)-N-cyclopropyl-N-(1-methylpiperidin-4-yl)nicotinamide] | 7.87 | 537 | 
24 | Cc1cc(C#N)ccc1-c1cnn(-c2ccc(C(=O)N3CCC(N4CCOCC4)CC3)cn2)c1O [Example 421, 4-(5-hydroxy-1-(5-(4-morpholinopiperidine-1-carbonyl)pyridin-2-yl)-1H-pyrazol-4-yl)-3-methylbenzonitrile] | 8.31 | 661 | 
25 | COCCN(C(=O)c1ccc(-n2ncc(-c3ccc(C#N)cc3C)c2O)nc1)C1CCN(C)CC1 [Example 422, 6-(4-(4-cyano-2-methylphenyl)-5-hydroxy-1H-pyrazol-1-yl)-N-(2-methoxyethyl)-N-(1-methylpiperidin-4-yl)nicotinamide] | 7.87 | 501 | 
26 | CCN1CCC(N(C)C(=O)c2ccc(-n3ncc(-c4ccc(C#N)cc4C)c3O)nc2)CC1 [Example 425, 6-(4-(4-cyano-2-methylphenyl)-5-hydroxy-1H-pyrazol-1-yl)-N-(1-ethylpiperidin-4-yl)-N-methylnicotinamide] | 7.74 | 776 | 
27 | COCCCNC(=O)c1ccc(-n2ncc(-c3cc(OC)c(C#N)cc3C)c2O)nc1 [Example 426, 6-(4-(4-cyano-5-methoxy-2-methylphenyl)-5-hydroxy-1H-pyrazol-1-yl)-N-(3-methoxypropyl)nicotinamide] | 8.18 | 2140 | 
28 | COCCN1CCC(N(C)C(=O)c2ccc(-n3ncc(-c4ccc(C#N)cc4C)c3O)nc2)CC1 [Example 427, 6-(4-(4-cyano-2-methylphenyl)-5-hydroxy-1H-pyrazol-1-yl)-N-(1-(2-methoxyethyl)piperidin-4-yl)-N-methylnicotinamide] | 7.83 | 646 | 
